Experimental findings from ChEMBL document CHEMBL1221226 (Nat Chem Biol, 2009) are described below.

Positions of bridges follow the written chain, without caps; N, C: chain ends. Residues, ends and D or L forms follow the SMILES beside them. *: point of attachment. X1 = CC(CN[C@@H](Cc1cnc[nH]1)C(=O)O)C(=O)*

The target of experiment [1] is Glucagon receptor (Homo sapiens, UniProt P47871). In words: Agonist activity at GCGR expressed in HEK293 cells assessed as stimulation of cAMP production by luciferase reporter gene assay. The format is functional, cell-based.
Glucagon receptor, sequence (P47871 whole entry): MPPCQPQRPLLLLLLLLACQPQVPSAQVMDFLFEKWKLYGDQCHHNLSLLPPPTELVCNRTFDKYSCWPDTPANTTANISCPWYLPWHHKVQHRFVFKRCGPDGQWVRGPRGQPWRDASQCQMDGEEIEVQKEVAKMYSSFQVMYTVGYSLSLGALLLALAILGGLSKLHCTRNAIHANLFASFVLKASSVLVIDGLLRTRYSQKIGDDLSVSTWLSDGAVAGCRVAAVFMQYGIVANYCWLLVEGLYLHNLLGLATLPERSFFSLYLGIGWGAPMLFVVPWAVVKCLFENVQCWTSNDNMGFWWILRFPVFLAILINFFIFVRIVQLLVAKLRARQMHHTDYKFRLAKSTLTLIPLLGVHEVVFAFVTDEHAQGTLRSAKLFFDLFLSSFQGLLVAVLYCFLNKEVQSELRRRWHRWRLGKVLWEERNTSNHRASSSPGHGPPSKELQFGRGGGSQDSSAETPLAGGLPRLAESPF
The target in experiment [2] is Glucagon-like peptide 1 receptor (Homo sapiens, UniProt P43220). As to the kind of experiment: Agonist activity at GLP1R expressed in HEK293 cells assessed as stimulation of cAMP production by luciferase reporter gene assay. The format is functional, cell-based.
Glucagon-like peptide 1 receptor, sequence (P43220 whole entry): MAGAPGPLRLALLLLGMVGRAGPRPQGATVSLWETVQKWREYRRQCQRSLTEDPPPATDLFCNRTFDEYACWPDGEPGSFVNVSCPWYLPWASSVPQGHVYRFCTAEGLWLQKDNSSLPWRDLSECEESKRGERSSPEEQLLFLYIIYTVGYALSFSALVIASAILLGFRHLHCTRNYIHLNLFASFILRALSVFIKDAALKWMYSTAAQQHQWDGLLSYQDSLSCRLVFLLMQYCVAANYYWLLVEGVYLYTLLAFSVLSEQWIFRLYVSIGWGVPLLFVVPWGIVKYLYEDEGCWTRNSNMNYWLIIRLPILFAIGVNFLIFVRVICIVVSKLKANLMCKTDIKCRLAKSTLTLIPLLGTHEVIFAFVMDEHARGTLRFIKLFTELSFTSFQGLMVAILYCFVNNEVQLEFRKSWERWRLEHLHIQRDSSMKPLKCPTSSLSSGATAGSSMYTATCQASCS

In the case of `CC[C@H](C)[C@H](NC(=O)[C@H](Cc1ccccc1)NC(=O)[C@H](CCC(=O)O)NC(=O)[C@H](CCCCN)NC(=O)[C@H](C)NC(=O)[C@H](C)NC(=O)[C@H](CCC(N)=O)NC(=O)[C@H](CCC(=O)O)NC(=O)[C@H](CC(=O)O)NC(=O)[C@H](CC(C)C)NC(=O)[C@H](Cc1ccc(O)cc1)NC(=O)[C@H](CCCCN)NC(=O)[C@H](CO)NC(=O)[C@H](Cc1ccc(O)cc1)NC(=O)[C@H](CC(=O)O)NC(=O)[C@H](CO)NC(=O)[C@@H](NC(=O)[C@H](Cc1ccccc1)NC(=O)[C@@H](NC(=O)CNC(=O)[C@H](CCC(N)=O)NC(=O)C(C)CN[C@@H](Cc1cnc[nH]1)C(=O)O)[C@@H](C)O)[C@@H](C)O)C(=O)N[C@@H](C)C(=O)N[C@@H](Cc1c[nH]c2ccccc12)C(=O)N[C@@H](CC(C)C)C(=O)N[C@@H](CCSC)C(=O)N[C@@H](CC(N)=O)C(=O)N[C@H](C(=O)O)[C@@H](C)O` (some centres undefined) (X1-QGTFTSDYSKYLDEQAAKEFIAWLMNT-OH), the EC50 in experiment [1] was 590 pM; in experiment [2] it was 14 pM.
Turning to `CC[C@H](C)[C@H](NC(=O)[C@H](Cc1ccccc1)NC(=O)[C@H](CCC(=O)O)NC(=O)[C@@H]1CCCCNC(=O)CC[C@H](NC(=O)[C@H](CC(=O)O)NC(=O)[C@H](CC(C)C)NC(=O)[C@H](Cc2ccc(O)cc2)NC(=O)[C@H](CCCCN)NC(=O)[C@H](CO)NC(=O)[C@H](Cc2ccc(O)cc2)NC(=O)[C@H](CC(=O)O)NC(=O)[C@H](CO)NC(=O)[C@@H](NC(=O)[C@H](Cc2ccccc2)NC(=O)[C@@H](NC(=O)CNC(=O)[C@H](CCC(N)=O)NC(=O)C(C)CN[C@@H](Cc2cnc[nH]2)C(=O)O)[C@@H](C)O)[C@@H](C)O)C(=O)N[C@@H](CCC(N)=O)C(=O)N[C@@H](C)C(=O)N[C@@H](C)C(=O)N1)C(=O)N[C@@H](C)C(=O)N[C@@H](Cc1c[nH]c2ccccc12)C(=O)N[C@@H](CC(C)C)C(=O)N[C@@H](CCSC)C(=O)N[C@@H](CC(N)=O)C(=O)N[C@H](C(=O)O)[C@@H](C)O` (some centres undefined) (X1-QGTFTSDYSKYLDEQAAKEFIAWLMNT-OH; lactam 14-18), the EC50 in experiment [1] stood at 55 pM; in experiment [2], 13 pM.
